Experiments:
Test in all cases: KINOMEscan competition binding
Settings in all cases: compound 10.0 µM
ADCK3 (human) = ADCK3 (human) (UniProt Q8NI60)
AURKC (human) = AURKC (human) (UniProt Q9UQB9)
BMPR2 (human) = BMPR2 (human) (UniProt Q13873)
CAMK1D (human) = CAMK1D (human) (UniProt Q8IU85)
CAMK2D (human) = CAMK2D (human) (UniProt Q13557)
CAMK2G (human) = CAMK2G (human) (UniProt Q13555)
CDK9 (human) = CDK9 (human) (UniProt P50750)
CLK1 (human) = CLK1 (human) (UniProt P49759)
CLK3 (human) = CLK3 (human) (UniProt P49761)
Chain of CLK3 (human) (P49761 whole entry, looked up): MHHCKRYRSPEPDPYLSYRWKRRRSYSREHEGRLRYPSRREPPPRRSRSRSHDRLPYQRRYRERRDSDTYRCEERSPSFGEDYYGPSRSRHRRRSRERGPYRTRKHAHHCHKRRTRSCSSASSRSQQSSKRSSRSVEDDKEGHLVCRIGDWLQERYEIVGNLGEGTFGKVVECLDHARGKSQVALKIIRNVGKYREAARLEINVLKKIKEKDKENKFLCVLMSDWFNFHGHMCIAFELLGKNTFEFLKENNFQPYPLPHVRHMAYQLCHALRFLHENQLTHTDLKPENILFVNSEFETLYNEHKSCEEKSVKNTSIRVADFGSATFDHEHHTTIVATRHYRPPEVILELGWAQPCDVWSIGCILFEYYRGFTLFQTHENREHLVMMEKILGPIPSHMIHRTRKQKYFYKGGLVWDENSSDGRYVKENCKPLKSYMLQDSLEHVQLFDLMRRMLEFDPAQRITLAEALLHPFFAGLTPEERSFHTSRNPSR

CSK (human) = CSK (human) (UniProt P41240)
CSNK1D (human) = CSNK1D (human) (UniProt P48730)
CSNK1G2 (human) = CSNK1G2 (human) (UniProt P78368)
Chain of CSNK1G2 (human) (P78368 whole entry, looked up): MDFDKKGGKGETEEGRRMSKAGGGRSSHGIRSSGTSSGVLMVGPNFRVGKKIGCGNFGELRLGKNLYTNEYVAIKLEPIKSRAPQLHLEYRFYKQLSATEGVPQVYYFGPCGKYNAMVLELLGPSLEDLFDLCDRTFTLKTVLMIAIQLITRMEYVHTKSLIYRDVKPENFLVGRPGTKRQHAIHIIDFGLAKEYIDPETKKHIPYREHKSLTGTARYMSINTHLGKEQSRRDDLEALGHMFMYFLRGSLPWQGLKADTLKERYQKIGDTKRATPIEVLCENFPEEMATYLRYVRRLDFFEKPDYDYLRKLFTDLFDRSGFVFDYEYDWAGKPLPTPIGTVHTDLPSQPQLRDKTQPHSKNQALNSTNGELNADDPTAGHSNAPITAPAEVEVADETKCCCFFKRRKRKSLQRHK

CSNK1G3 (human) = CSNK1G3 (human) (UniProt Q9Y6M4)
DCLK3 (human) = DCLK3 (human) (UniProt Q9C098)
EPHA8 (human) = EPHA8 (human) (UniProt P29322)
FYN (human) = FYN (human) (UniProt P06241)
INSR (human) = INSR (human) (UniProt P06213)
INSRR (human) = INSRR (human) (UniProt P14616)
LIMK1 (human) = LIMK1 (human) (UniProt P53667)
LYN (human) = LYN (human) (UniProt P07948)
MAPK11 (human) = MAPK11 (human) (UniProt Q15759)
MAPK12 (human) = MAPK12 (human) (UniProt P53778)
MAPK8 (human) = MAPK8 (human) (UniProt P45983)
Chain of MAPK8 (human) (P45983 whole entry, looked up): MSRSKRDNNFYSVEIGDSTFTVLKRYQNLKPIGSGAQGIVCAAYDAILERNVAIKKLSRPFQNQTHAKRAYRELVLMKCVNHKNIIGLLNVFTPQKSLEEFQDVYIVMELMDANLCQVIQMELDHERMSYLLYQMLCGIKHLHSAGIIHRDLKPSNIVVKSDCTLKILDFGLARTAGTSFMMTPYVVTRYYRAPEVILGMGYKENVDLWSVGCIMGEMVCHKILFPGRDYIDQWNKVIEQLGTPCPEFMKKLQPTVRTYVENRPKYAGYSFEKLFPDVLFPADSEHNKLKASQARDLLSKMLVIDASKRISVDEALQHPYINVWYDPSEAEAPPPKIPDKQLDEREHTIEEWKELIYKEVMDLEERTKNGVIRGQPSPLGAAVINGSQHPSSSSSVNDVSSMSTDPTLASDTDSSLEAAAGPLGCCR

MAPKAPK5 (human) = MAPKAPK5 (human) (UniProt Q8IW41)
MARK3 (human) = MARK3 (human) (UniProt P27448)
MELK (human) = MELK (human) (UniProt Q14680)
MERTK (human) = MERTK (human) (UniProt Q12866)
MYLK2 (human) = MYLK2 (human) (UniProt Q9H1R3)
Chain of MYLK2 (human) (Q9H1R3 whole entry, looked up): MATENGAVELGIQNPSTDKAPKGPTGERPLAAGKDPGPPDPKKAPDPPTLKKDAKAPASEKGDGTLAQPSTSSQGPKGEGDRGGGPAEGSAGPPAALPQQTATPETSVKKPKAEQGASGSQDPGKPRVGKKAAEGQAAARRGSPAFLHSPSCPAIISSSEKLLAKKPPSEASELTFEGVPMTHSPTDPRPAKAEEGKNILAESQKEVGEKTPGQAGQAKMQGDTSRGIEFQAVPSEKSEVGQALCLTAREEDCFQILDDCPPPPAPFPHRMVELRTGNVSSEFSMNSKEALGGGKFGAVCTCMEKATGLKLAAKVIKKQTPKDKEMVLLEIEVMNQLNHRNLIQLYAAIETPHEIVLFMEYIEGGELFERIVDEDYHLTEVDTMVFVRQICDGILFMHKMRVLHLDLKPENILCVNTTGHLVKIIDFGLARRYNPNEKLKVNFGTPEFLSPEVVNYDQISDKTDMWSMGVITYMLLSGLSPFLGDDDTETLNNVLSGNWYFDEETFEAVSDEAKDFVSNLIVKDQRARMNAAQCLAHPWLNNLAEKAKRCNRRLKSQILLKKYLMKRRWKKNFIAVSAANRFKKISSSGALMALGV

MYO3B (human) = MYO3B (human) (UniProt Q8WXR4)
NEK9 (human) = NEK9 (human) (UniProt Q8TD19)
NUAK1 (human) = NUAK1 (human) (UniProt O60285)
PAK6 (human) = PAK6 (human) (UniProt Q9NQU5)
Chain of PAK6 (human) (Q9NQU5 whole entry, looked up): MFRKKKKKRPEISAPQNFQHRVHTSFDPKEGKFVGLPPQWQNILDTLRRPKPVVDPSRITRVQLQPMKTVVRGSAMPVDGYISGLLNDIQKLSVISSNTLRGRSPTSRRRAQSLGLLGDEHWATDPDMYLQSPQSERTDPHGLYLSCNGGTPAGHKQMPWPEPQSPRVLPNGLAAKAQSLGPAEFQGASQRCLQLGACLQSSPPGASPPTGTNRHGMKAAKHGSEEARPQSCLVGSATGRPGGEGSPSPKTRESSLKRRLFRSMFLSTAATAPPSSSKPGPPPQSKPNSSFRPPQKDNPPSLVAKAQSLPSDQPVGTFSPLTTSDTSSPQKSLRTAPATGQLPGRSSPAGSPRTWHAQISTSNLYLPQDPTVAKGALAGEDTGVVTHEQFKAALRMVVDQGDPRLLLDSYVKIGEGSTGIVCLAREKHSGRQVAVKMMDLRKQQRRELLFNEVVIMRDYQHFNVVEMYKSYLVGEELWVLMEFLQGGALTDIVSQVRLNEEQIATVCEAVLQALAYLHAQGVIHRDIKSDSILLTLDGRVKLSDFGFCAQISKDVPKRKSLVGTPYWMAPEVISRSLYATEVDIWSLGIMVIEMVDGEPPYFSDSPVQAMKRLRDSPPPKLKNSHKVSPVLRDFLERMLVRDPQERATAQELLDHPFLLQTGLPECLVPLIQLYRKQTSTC

PAK7 (human) = PAK7 (human) (UniProt Q9P286)
PDGFRA (human) = PDGFRA (human) (UniProt P16234)
PIK3CD (human) = PIK3CD (human) (UniProt O00329)
RPS6KA4 KD2 (human) = RPS6KA4 KD2 (human) (UniProt O75676)
SLK (human) = SLK (human) (UniProt Q9H2G2)
Chain of SLK (human) (Q9H2G2 whole entry, looked up): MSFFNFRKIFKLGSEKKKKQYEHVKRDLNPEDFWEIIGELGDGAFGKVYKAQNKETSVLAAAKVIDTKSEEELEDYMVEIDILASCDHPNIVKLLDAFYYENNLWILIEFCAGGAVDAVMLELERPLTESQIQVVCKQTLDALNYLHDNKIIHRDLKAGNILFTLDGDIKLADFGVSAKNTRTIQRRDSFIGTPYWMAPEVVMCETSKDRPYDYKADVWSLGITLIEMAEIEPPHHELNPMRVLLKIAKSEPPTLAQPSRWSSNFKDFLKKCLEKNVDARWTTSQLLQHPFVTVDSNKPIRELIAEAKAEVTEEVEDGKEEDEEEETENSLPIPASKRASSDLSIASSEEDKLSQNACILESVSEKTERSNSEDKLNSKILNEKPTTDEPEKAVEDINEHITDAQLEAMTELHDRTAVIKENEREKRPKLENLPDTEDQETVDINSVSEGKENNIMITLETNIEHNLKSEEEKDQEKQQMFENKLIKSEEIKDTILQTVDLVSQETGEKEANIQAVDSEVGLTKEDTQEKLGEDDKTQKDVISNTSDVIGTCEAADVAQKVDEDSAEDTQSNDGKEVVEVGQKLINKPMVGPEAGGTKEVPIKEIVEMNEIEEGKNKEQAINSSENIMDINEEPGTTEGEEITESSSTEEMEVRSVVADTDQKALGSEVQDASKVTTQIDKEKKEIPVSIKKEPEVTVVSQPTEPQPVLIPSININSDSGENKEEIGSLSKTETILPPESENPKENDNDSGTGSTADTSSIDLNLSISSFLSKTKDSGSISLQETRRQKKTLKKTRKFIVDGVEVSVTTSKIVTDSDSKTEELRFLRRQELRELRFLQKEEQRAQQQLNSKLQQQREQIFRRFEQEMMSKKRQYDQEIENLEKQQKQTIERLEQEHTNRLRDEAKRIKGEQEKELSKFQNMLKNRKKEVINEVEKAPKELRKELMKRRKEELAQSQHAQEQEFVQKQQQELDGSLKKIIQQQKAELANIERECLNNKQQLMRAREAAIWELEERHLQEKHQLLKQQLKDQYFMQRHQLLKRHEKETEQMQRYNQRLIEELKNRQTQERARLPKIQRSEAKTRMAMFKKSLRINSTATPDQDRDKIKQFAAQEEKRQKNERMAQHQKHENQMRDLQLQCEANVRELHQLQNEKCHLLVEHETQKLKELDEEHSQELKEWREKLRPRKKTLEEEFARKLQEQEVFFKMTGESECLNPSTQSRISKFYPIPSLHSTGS

STK32C (human) = STK32C (human) (UniProt Q86UX6)
STK4 (human) = STK4 (human) (UniProt Q13043)
Chain of STK4 (human) (Q13043 whole entry, looked up): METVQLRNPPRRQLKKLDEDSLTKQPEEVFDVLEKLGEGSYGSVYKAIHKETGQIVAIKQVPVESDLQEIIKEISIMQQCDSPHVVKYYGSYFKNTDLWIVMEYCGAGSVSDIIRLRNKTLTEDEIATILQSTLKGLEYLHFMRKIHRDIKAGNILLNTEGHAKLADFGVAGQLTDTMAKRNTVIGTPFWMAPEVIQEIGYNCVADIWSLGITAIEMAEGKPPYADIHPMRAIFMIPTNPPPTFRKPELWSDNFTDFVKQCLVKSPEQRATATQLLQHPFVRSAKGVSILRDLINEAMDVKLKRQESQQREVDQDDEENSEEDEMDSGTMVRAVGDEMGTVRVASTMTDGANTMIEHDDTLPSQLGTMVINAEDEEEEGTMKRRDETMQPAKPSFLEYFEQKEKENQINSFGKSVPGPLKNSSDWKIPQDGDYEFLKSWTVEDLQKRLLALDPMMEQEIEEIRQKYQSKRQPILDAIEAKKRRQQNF

TLK2 (human) = TLK2 (human) (UniProt Q86UE8)

Chain of CAMK2D (human) (Q13557 whole entry, looked up): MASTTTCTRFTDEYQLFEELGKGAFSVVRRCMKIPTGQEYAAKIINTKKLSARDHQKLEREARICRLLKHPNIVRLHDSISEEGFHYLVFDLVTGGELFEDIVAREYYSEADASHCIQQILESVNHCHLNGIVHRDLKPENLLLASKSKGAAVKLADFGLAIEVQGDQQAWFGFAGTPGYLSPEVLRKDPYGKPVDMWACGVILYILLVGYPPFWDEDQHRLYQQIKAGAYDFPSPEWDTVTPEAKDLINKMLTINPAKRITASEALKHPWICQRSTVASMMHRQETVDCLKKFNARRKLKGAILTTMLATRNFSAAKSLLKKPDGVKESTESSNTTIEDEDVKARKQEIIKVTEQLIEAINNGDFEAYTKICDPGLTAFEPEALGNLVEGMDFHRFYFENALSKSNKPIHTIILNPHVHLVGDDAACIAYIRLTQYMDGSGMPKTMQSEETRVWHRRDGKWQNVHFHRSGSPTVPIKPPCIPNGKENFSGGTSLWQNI

| Structure (SMILES) | kinase still bound, per cent of control (ADCK3 (human)) | kinase still bound, per cent of control (AURKC (human)) | kinase still bound, per cent of control (BMPR2 (human)) | kinase still bound, per cent of control (CAMK1D (human)) | kinase still bound, per cent of control (CAMK2D (human)) | kinase still bound, per cent of control (CAMK2G (human)) | kinase still bound, per cent of control (CDK9 (human)) | kinase still bound, per cent of control (CLK1 (human)) | kinase still bound, per cent of control (CLK3 (human)) | kinase still bound, per cent of control (CSK (human)) | kinase still bound, per cent of control (CSNK1D (human)) | kinase still bound, per cent of control (CSNK1G2 (human)) | kinase still bound, per cent of control (CSNK1G3 (human)) | kinase still bound, per cent of control (DCLK3 (human)) | kinase still bound, per cent of control (EPHA8 (human)) | kinase still bound, per cent of control (FYN (human)) | kinase still bound, per cent of control (INSR (human)) | kinase still bound, per cent of control (INSRR (human)) | kinase still bound, per cent of control (LIMK1 (human)) | kinase still bound, per cent of control (LYN (human)) | further results |
| --- | --- | --- | --- | --- | --- | --- | --- | --- | --- | --- | --- | --- | --- | --- | --- | --- | --- | --- | --- | --- | --- |
| O=C(NOC[C@H](O)CO)c1ccc(F)c(F)c1Nc1ccc(I)cc1F | 86% | 45% | 92% | 89% | 100% | 100% | 76% | 95% | 100% | 100% | 100% | 95% | 67% | 100% | 94% | 64% | 92% | 81% | 68% | 72% | kinase still bound, per cent of control (MAPK11 (human)): 100%; kinase still bound, per cent of control (MAPK12 (human)): 100%; kinase still bound, per cent of control (MAPK8 (human)): 92%; kinase still bound, per cent of control (MAPKAPK5 (human)): 100%; kinase still bound, per cent of control (MARK3 (human)): 91%; kinase still bound, per cent of control (MELK (human)): 80%; kinase still bound, per cent of control (MERTK (human)): 100%; kinase still bound, per cent of control (MYLK2 (human)): 100%; kinase still bound, per cent of control (MYO3B (human)): 99%; kinase still bound, per cent of control (NEK9 (human)): 82%; kinase still bound, per cent of control (NUAK1 (human)): 81%; kinase still bound, per cent of control (PAK6 (human)): 94%; kinase still bound, per cent of control (PAK7 (human)): 100%; kinase still bound, per cent of control (PDGFRA (human)): 96%; kinase still bound, per cent of control (PIK3CD (human)): 40%; kinase still bound, per cent of control (RPS6KA4 KD2 (human)): 100%; kinase still bound, per cent of control (SLK (human)): 93%; kinase still bound, per cent of control (STK32C (human)): 100%; kinase still bound, per cent of control (STK4 (human)): 100%; kinase still bound, per cent of control (TLK2 (human)): 98% |
| O=C1Nc2ccc(I)cc2/C1=C/c1cc(Br)c(O)c(Br)c1 | 100% | 71% | 100% | 76% | 41% | 40% | 93% | 34% | 84% | 92% | 72% | 100% | 94% | 100% | 100% | 52% | 100% | 81% | 100% | 86% | kinase still bound, per cent of control (MAPK11 (human)): 88%; kinase still bound, per cent of control (MAPK12 (human)): 74%; kinase still bound, per cent of control (MAPK8 (human)): 86%; kinase still bound, per cent of control (MAPKAPK5 (human)): 100%; kinase still bound, per cent of control (MARK3 (human)): 68%; kinase still bound, per cent of control (MELK (human)): 99%; kinase still bound, per cent of control (MERTK (human)): 100%; kinase still bound, per cent of control (MYLK2 (human)): 85%; kinase still bound, per cent of control (MYO3B (human)): 8.6%; kinase still bound, per cent of control (NEK9 (human)): 100%; kinase still bound, per cent of control (NUAK1 (human)): 100%; kinase still bound, per cent of control (PAK6 (human)): 73%; kinase still bound, per cent of control (PAK7 (human)): 87%; kinase still bound, per cent of control (PDGFRA (human)): 22%; kinase still bound, per cent of control (PIK3CD (human)): 81%; kinase still bound, per cent of control (RPS6KA4 KD2 (human)): 47%; kinase still bound, per cent of control (SLK (human)): 100%; kinase still bound, per cent of control (STK32C (human)): 98%; kinase still bound, per cent of control (STK4 (human)): 52%; kinase still bound, per cent of control (TLK2 (human)): 83% |
| Cn1c(=O)n(-c2ccc(C(C)(C)C#N)cc2)c2c3cc(-c4cnc5ccccc5c4)ccc3ncc21 | 100% | 100% | 100% | 100% | 100% | 100% | 100% | 23% | 100% | 100% | 100% | 100% | 100% | 100% | 100% | 100% | 100% | 100% | 100% | 100% | kinase still bound, per cent of control (MAPK11 (human)): 100%; kinase still bound, per cent of control (MAPK12 (human)): 100%; kinase still bound, per cent of control (MAPK8 (human)): 100%; kinase still bound, per cent of control (MAPKAPK5 (human)): 100%; kinase still bound, per cent of control (MARK3 (human)): 100%; kinase still bound, per cent of control (MELK (human)): 100%; kinase still bound, per cent of control (MERTK (human)): 100%; kinase still bound, per cent of control (MYLK2 (human)): 100%; kinase still bound, per cent of control (MYO3B (human)): 100%; kinase still bound, per cent of control (NEK9 (human)): 100%; kinase still bound, per cent of control (NUAK1 (human)): 30%; kinase still bound, per cent of control (PAK6 (human)): 100%; kinase still bound, per cent of control (PAK7 (human)): 100%; kinase still bound, per cent of control (PDGFRA (human)): 100%; kinase still bound, per cent of control (PIK3CD (human)): 7.2%; kinase still bound, per cent of control (RPS6KA4 KD2 (human)): 100%; kinase still bound, per cent of control (SLK (human)): 100%; kinase still bound, per cent of control (STK32C (human)): 100%; kinase still bound, per cent of control (STK4 (human)): 100%; kinase still bound, per cent of control (TLK2 (human)): 100% |

Reference: the kinase profiling compilation of Christmann-Franck et al. (2016)
